Laboratory results reported in US20230293439A1, “SPRAY DRYING OF SUPERSATURATED SOLUTIONS OF API WITH ACETIC ACID” (BEND RESEARCH, INC., priority 2020, published 2023).
In brackets after ≈: the same amount, converted by molar mass. Like-named read-outs stand apart in the source and are kept apart here.

What was measured:
[1] = Solubility determination of nilotinib (saturated solution, 24 h stirring, filtrate analysed by gravimetry); format: physicochemical; settings: for solubility at 24 h: organic solvent or mixture, thermodynamic from solid
[2] = Metastability of the supersaturated nilotinib solution from the Solvent-Shift route (visual check for precipitation)
[3] = Glacial Acetic Acid, wt % of saturated solution
[4] = Methanol:Acetic Acid 9:1 (w:w), wt % of saturated solution
[5] = Methanol, wt % based on weight of the saturated solution

solubility at 24 h ([1]; 25 °C, Glacial Acetic Acid, mg per ml saturated solution, read-out: Solubility at 25° C.): 135000 µg/mL (≈ 255 mM)
solubility at 24 h ([1]; 25 °C, Methanol:Acetic Acid 9:1 (w:w), mg per ml saturated solution, read-out: Solubility at 25° C.): 6000 µg/mL (≈ 11.3 mM)
solubility at 24 h ([1]; 25 °C, Methanol, mg of nilotinib per ml saturated solution, read-out: Solubility at 25° C.): 2800 µg/mL (≈ 5.29 mM)
solubility at 24 h ([1]; 40 °C, Glacial Acetic Acid, mg per ml saturated solution, read-out: Solubility at 40° C.): 233000 µg/mL (≈ 440 mM)
Solubility at 25° C. [1, 3]: 12.7 wt %
Solubility at 40° C. [1, 3]: 21.1 wt %
Solubility at 40° C. ([1]; Methanol:Acetic Acid 9:1 (w:w), mg per ml saturated solution): 8 mg/mL (≈ 15.1 mM)
Solubility at 25° C. [1, 4]: 0.76 wt %
Solubility at 40° C. [1, 4]: 1.0 wt %
Solubility at 40° C. ([1]; Methanol, mg of nilotinib per ml saturated solution): 5.0 mg/mL (≈ 9.44 mM)
Solubility at 25° C. [1, 5]: 0.36 wt %
Solubility at 40° C. [1, 5]: 0.66 wt %
Time at which visible solids were observed ([2]; Example 1: 2.15 wt % nilotinib in 91.2:8.8 (w:w) methanol:acetic acid, 40° C., no polymer): 7.5 h
Appearance of the control mixture (nilotinib weighed directly into the solvent mixture) ([2]; Example 1 control: 2.06 wt % nilotinib in 89.5:10.5 (w:w) methanol:acetic acid, 40° C.): visible slurry
Time at which visible solids were observed ([2]; Example 3: 2.19 wt % nilotinib in 85.0:9.0:6.0 (w:w:w) methanol:acetic acid:PVP-VA64, 40° C.): 4 h
SMILES: Cc1cn(-c2cc(NC(=O)c3ccc(C)c(Nc4nccc(-c5cccnc5)n4)c3)cc(C(F)(F)F)c2)cn1 [Nilotinib]
